Results: the supplement of paper PMC11208160

experiment: recombinant UMI read abundance after kanamycin selection (control-corrected) (log10(CPM+1)); higher = more efficient recombination; extreme values may be limits of the assay; sequences stand for … in AGTGCAGAGAAAATCGGCCAGTTTTCTCTGCCTGCAGTCCGCATGCCGTGGGACCCCTTGGGTTCTAACCTGTTGCCTAGATTTATGCAGCGGACTGCCTTTCTCCCAAAGTGATAAACCGG…AGGTTGGTTTCACT; site = the 11-nt donor
Outline: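 Values, expressed as log10(CPM+1), derive from recombinant UMI counts converted to CPM, averaged across replicates and scaled by control-derived factors. Plating was with IPTG (0.07 mM) plus kanamycin or unselected, two replicates each. The screen pooled donor and donor-binding-loop pairs for the IS621 bridge recombinase in Escherichia coli.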
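Also: IS621 bridge recombinase in Escherichia coli cells against a fixed T5 target plasmid.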

“TTCACCGCATGGACCGGTTTTCCCGGTAATCCGTATTTGCG (site TGCACCGCTCG)” and “TTCACCGCATGGACCGGTTTTCCCGGTAATCCGTATTTGCG (site TTCACCGCTCG)” are within 0.2 log units of each other in “recombinant UMI read abundance (log10)” value: 0.0109 for the first, 0.0246 for the second.

“TTCACCTCATGGACCGGTTTTCCCGGTAATCCGTATTTGGT (site TTCACCTCTAC)” and “TTCACTACATGGACCGGTTTTCCCGGTAATCCGTATTTGAG (site TTCACTACTCT)” are within 0.2 log units of each other in “recombinant UMI read abundance (log10)” value: 0 for the first, 0.00204 for the second.

“TTCACTCCATGGACCGGTTTTCCCGGTAATCCGTATTTGAG (site TTCACTCCTCT)” and “TTCATTGCATGGACCGGTTTTCCCGGTAATCCGTATTTGAA (site TTCATTGCTTT)” are the same in “recombinant UMI read abundance (log10)” value: 0 for the first, 0 for the second.

“TTCCACCCATGGACCGGTTTTCCCGGTAATCCGTATTTGAC (site TTCCACCCTGT)” and “TTCCCTTCATGGACCGGTTTTCCCGGTAATCCGTATTTGCA (site TTCCCTTCTTG)” are the same in “recombinant UMI read abundance (log10)” value: 0 for the first, 0 for the second.

“TTCCGCTCATGGACCGGTTTTCCCGGTAATCCGTATTTGTG (site TTCCGCTCTCA)” and “TTCCTTTCATGGACCGGTTTTCCCGGTAATCCGTATTTGAT (site TTCCTTTCTAT)” are the same in “recombinant UMI read abundance (log10)” value: 0 for the first, 0 for the second.

Compared with “TTCGACCCATGGACCGGTTTTCCCGGTAATCCGTATTTGGC (site TTCGACCCTGC)”, “TTCGACTCATGGACCGGTTTTCCCGGTAATCCGTATTTGAC (site TTCGACTCTGT)” is higher in “recombinant UMI read abundance (log10)” value: 0 for the first, 1.03 for the second.

Going from “TTCGACTCATGGACCGGTTTTCCCGGTAATCCGTATTTGTT (site TTCGACTCTAA)” to “TTCGCGCCATGGACCGGTTTTCCCGGTAATCCGTATTTGTA (site TTCGCGCCTTA)”, the “recombinant UMI read abundance (log10)” value falls from 1.01 to 0.00689.

“TTCGCTGCATGGACCGGTTTTCCCGGTAATCCGTATTTGGG (site TTCGCTGCTCC)” and “TTCGGTGCATGGACCGGTTTTCCCGGTAATCCGTATTTGCC (site TTCGGTGCTGG)” are within 0.2 log units of each other in “recombinant UMI read abundance (log10)” value: 0.00922 for the first, 0 for the second.

“TTCGGTTCATGGACCGGTTTTCCCGGTAATCCGTATTTGAC (site TTCGGTTCTGT)” and “TTCGGTTCATGGACCGGTTTTCCCGGTAATCCGTATTTGGA (site TTCGGTTCTTC)” are the same in “recombinant UMI read abundance (log10)” value: 0 for the first, 0 for the second.

Compared with “TTCTAAACATGGACCGGTTTTCCCGGTAATCCGTATTTGCA (site TTCTAAACTTG)”, “TTCTATTCATGGACCGGTTTTCCCGGTAATCCGTATTTGCT (site TTCTATTCTAG)” is lower in “recombinant UMI read abundance (log10)” value: 2.65 for the first, 0 for the second.

“TTCTCAGCATGGACCGGTTTTCCCGGTAATCCGTATTTGAG (site TTCTCAGCTCT)” and “TTCTCTCCATGGACCGGTTTTCCCGGTAATCCGTATTTGAA (site TTCTCTCCTTT)” are within 0.2 log units of each other in “recombinant UMI read abundance (log10)” value: 0.00607 for the first, 0.019 for the second.

“TTCTTGACATGGACCGGTTTTCCCGGTAATCCGTATTTGTG (site TTCTTGACTCA)” and “TTGAATCCATGGACCGGTTTTCCCGGTAATCCGTATTTGGA (site TTGAATCCTTC)” are within 0.2 log units of each other in “recombinant UMI read abundance (log10)” value: 0.0069 for the first, 0.123 for the second.

Compared with “TTGACCCCATGGACCGGTTTTCCCGGTAATCCGTATTTGAT (site TTGACCCCTAT)”, “TTGACGTCATGGACCGGTTTTCCCGGTAATCCGTATTTGTT (site TTGACGTCTAA)” is lower in “recombinant UMI read abundance (log10)” value: 0.347 for the first, 0.101 for the second.

Going from “TTGAGAACATGGACCGGTTTTCCCGGTAATCCGTATTTGAC (site TTGAGAACTGT)” to “TTGAGAACATGGACCGGTTTTCCCGGTAATCCGTATTTGCC (site TTGAGAACTGG)”, the “recombinant UMI read abundance (log10)” value rises from 0.447 to 1.36.

First: TTGATCTCATGGACCGGTTTTCCCGGTAATCCGTATTTGCG (site TTGATCTCTCG)
Second: TTGCAGCCATGGACCGGTTTTCCCGGTAATCCGTATTTGCT (site TTGCAGCCTAG)
The “recombinant UMI read abundance (log10)” value of the first is higher: 1.95 for the first, 0.0502 for the second.

“TTGCATGCATGGACCGGTTTTCCCGGTAATCCGTATTTGCA (site TTGCATGCTTG)” and “TTGCCGGCATGGACCGGTTTTCCCGGTAATCCGTATTTGGC (site TAGCCGGCTGC)” are within 0.2 log units of each other in “recombinant UMI read abundance (log10)” value: 0 for the first, 0.00655 for the second.

“TTGCCGGCATGGACCGGTTTTCCCGGTAATCCGTATTTGGC (site TCGCCGGCTGC)” and “TTGCCGGCATGGACCGGTTTTCCCGGTAATCCGTATTTGGC (site TGGCCGGCTGC)” are the same in “recombinant UMI read abundance (log10)” value: 0 for the first, 0 for the second.

“TTGCCGGCATGGACCGGTTTTCCCGGTAATCCGTATTTGGC (site TTGCCGGCTGC)” and “TTGCCGTCATGGACCGGTTTTCCCGGTAATCCGTATTTGGC (site TTGCCGTCTGC)” are the same in “recombinant UMI read abundance (log10)” value: 0 for the first, 0 for the second.

“TTGCTAGCATGGACCGGTTTTCCCGGTAATCCGTATTTGAA (site TAGCTAGCTTT)” and “TTGCTAGCATGGACCGGTTTTCCCGGTAATCCGTATTTGAA (site TCGCTAGCTTT)” are within 0.2 log units of each other in “recombinant UMI read abundance (log10)” value: 0.016 for the first, 0.0147 for the second.

Going from “TTGCTAGCATGGACCGGTTTTCCCGGTAATCCGTATTTGAA (site TGGCTAGCTTT)” to “TTGCTAGCATGGACCGGTTTTCCCGGTAATCCGTATTTGAA (site TTGCTAGCTTT)”, the “recombinant UMI read abundance (log10)” value rises from 0.0255 to 0.252.

First: TTGCTGTCATGGACCGGTTTTCCCGGTAATCCGTATTTGAT (site TTGCTGTCTAT)
Second: TTGGAATCATGGACCGGTTTTCCCGGTAATCCGTATTTGCA (site TTGGAATCTTG)
The “recombinant UMI read abundance (log10)” value of the first is lower: 0.00531 for the first, 2.76 for the second.

Compared with “TTGGCACCATGGACCGGTTTTCCCGGTAATCCGTATTTGAG (site TTGGCACCTCT)”, “TTGGCGGCATGGACCGGTTTTCCCGGTAATCCGTATTTGCT (site TTAGCGGCTAG)” is higher in “recombinant UMI read abundance (log10)” value: 0.0325 for the first, 1.3 for the second.

Going from “TTGGCGGCATGGACCGGTTTTCCCGGTAATCCGTATTTGCT (site TTCGCGGCTAG)” to “TTGGCGGCATGGACCGGTTTTCCCGGTAATCCGTATTTGCT (site TTGGCGGCTAG)”, the “recombinant UMI read abundance (log10)” value rises from 0 to 1.44.

Going from “TTGGCGGCATGGACCGGTTTTCCCGGTAATCCGTATTTGCT (site TTTGCGGCTAG)” to “TTGGGTGCATGGACCGGTTTTCCCGGTAATCCGTATTTGAT (site TTGGGTGCTAT)”, the “recombinant UMI read abundance (log10)” value rises from 0.00953 to 1.6.

First: TTGGTTTCATGGACCGGTTTTCCCGGTAATCCGTATTTGTT (site TTGGTTTCTAA)
Second: TTGTAGACATGGACCGGTTTTCCCGGTAATCCGTATTTGCA (site TTGTAGACTTG)
The “recombinant UMI read abundance (log10)” value of the first is lower: 0.417 for the first, 1.87 for the second.

“TTGTCTACATGGACCGGTTTTCCCGGTAATCCGTATTTGCG (site TTGTCTACTCG)” and “TTGTGACCATGGACCGGTTTTCCCGGTAATCCGTATTTGAT (site TTGTGACCTAT)” are within 0.2 log units of each other in “recombinant UMI read abundance (log10)” value: 0.0108 for the first, 0.00587 for the second.

Going from “TTGTGAGCATGGACCGGTTTTCCCGGTAATCCGTATTTGGT (site TTGTGAGCTAC)” to “TTGTTCCCATGGACCGGTTTTCCCGGTAATCCGTATTTGTG (site TTGTTCCCTCA)”, the “recombinant UMI read abundance (log10)” value falls from 0.701 to 0.187.

First: TTTAATTCATGGACCGGTTTTCCCGGTAATCCGTATTTGCA (site TTTAATTCTTG)
Second: TTTAATTCATGGACCGGTTTTCCCGGTAATCCGTATTTGGG (site TTTAATTCTCC)
The “recombinant UMI read abundance (log10)” value of the first is lower: 0 for the first, 1.33 for the second.

“TTTATTACATGGACCGGTTTTCCCGGTAATCCGTATTTGGT (site TTTATTACTAC)” and “TTTATTCCATGGACCGGTTTTCCCGGTAATCCGTATTTGAC (site TTTATTCCTGT)” are within 0.2 log units of each other in “recombinant UMI read abundance (log10)” value: 0.0132 for the first, 0 for the second.

“TTTCAGACATGGACCGGTTTTCCCGGTAATCCGTATTTGTT (site TTTCAGACTAA)” and “TTTCCAACATGGACCGGTTTTCCCGGTAATCCGTATTTGAA (site TTTCCAACTTT)” are within 0.2 log units of each other in “recombinant UMI read abundance (log10)” value: 0.004 for the first, 0.0166 for the second.

Going from “TTTCCCGCATGGACCGGTTTTCCCGGTAATCCGTATTTGTC (site TTTCCCGCTGA)” to “TTTCCGGCATGGACCGGTTTTCCCGGTAATCCGTATTTGCT (site TTTACGGCTAG)”, the “recombinant UMI read abundance (log10)” value falls from 1.42 to 0.0335.

“TTTCCGGCATGGACCGGTTTTCCCGGTAATCCGTATTTGCT (site TTTCCGGCTAG)” and “TTTCCGGCATGGACCGGTTTTCCCGGTAATCCGTATTTGCT (site TTTGCGGCTAG)” are within 0.2 log units of each other in “recombinant UMI read abundance (log10)” value: 0.016 for the first, 0.00591 for the second.

First: TTTCCGGCATGGACCGGTTTTCCCGGTAATCCGTATTTGCT (site TTTTCGGCTAG)
Second: TTTCTAGCATGGACCGGTTTTCCCGGTAATCCGTATTTGAC (site TTTCTAGCTGT)
The “recombinant UMI read abundance (log10)” value of the first is lower: 0.0123 for the first, 0.582 for the second.

Compared with “TTTCTGTCATGGACCGGTTTTCCCGGTAATCCGTATTTGAA (site TTTCTGTCTTT)”, “TTTGCCTCATGGACCGGTTTTCCCGGTAATCCGTATTTGCC (site TTTGCCTCTGG)” is higher in “recombinant UMI read abundance (log10)” value: 0.0118 for the first, 1.48 for the second.
